According to patent US20170190671A1, “BIS(ARYL)CATECHOL DERIVATIVES AS HERBICIDES” (E I DU PONT DE NEMOURS AND COMPANY, priority 2014, published 2017):

What was measured:
Experiment in all cases: Test C postemergence
Assay type in all cases: in vivo
[1] = tested on: soybean (Glycine max); details: Glycine max, post-emergence, Postemergence, scale 0 to 100, read-out: Plant response rating, Soybean
Procedure, shortened: (§1)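 Greenhouse test; preemergence to seeds in loam/sand soil, or postemergence spray to 2-18 cm, 1- to 4-leaf plants in peat/vermiculite medium; compound in non-phytotoxic solvent plus surfactant. Visual rating vs controls at 13-15 d, 0 = no effect, 100 = complete control.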

[2] = tested on: corn (Zea mays); details: Zea mays, post-emergence, 336 h, Postemergence, scale 0 to 100
Procedure, shortened: as §1

[3] = tested on: johnsongrass (Sorghum halepense); details: Sorghum halepense, post-emergence, 336 h, Postemergence, scale 0 to 100, read-out: Plant response rating, Johnsongrass
Procedure, shortened: as §1

[4] = tested on: Italian ryegrass (Lolium multiflorum); details: Lolium multiflorum, post-emergence, 336 h, Postemergence, scale 0 to 100, read-out: Plant response rating, Ryegrass, Italian
Procedure, shortened: as §1

[5] = tested on: ragweed (common ragweed, Ambrosia elatior); details: Ambrosia artemisiifolia, post-emergence, 336 h, Postemergence, scale 0 to 100, read-out: Plant response rating, Ragweed
Procedure, shortened: as §1

[6] = tested on: lambsquarters (Chenopodium album); details: Chenopodium album, post-emergence, 336 h, Postemergence, scale 0 to 100, read-out: Plant response rating, Lambsquarters
Procedure, shortened: as §1

[7] = tested on: giant foxtail (Setaria faberii); details: Setaria faberi, post-emergence, 336 h, Postemergence, scale 0 to 100, read-out: Plant response rating, Foxtail, Giant
Procedure, shortened: as §1

[8] = tested on: chickweed (common chickweed, Stellaria media); details: Stellaria media, post-emergence, Postemergence, scale 0 to 100, read-out: Plant response rating, Chickweed
Procedure, shortened: as §1

[9] = tested on: waterhemp (common waterhemp, Amaranthus rudis); details: Amaranthus tuberculatus, post-emergence, Postemergence, scale 0 to 100, read-out: Plant response rating, Waterhemp
Procedure, shortened: as §1

[10] = tested on: oilseed rape (Brassica napus); details: Brassica napus, post-emergence, Postemergence, scale 0 to 100, read-out: Plant response rating, Oilseed Rape
Procedure, shortened: as §1

[11] = tested on: pigweed (Amaranthus retroflexus); details: Amaranthus retroflexus, post-emergence, 336 h, Postemergence, scale 0 to 100, read-out: Plant response rating, Pigweed
Procedure, shortened: as §1

[12] = tested on: wild oat (Avena fatua); details: Avena fatua, post-emergence, Postemergence, scale 0 to 100, read-out: Plant response rating, Oat, Wild
Procedure, shortened: as §1

[13] = tested on: yellow nutsedge (Cyperus esculentus); details: Cyperus, post-emergence, 336 h, Postemergence, scale 0 to 100, read-out: Plant response rating, Nutsedge, Yellow
Procedure, shortened: as §1

[14] = tested on: barnyardgrass (Echinochloa crus-galli); details: Echinochloa crus-galli, post-emergence, Postemergence, scale 0 to 100, read-out: Plant response rating, Barnyardgrass
Procedure, shortened: as §1

[15] = tested on: blackgrass (Alopecurus myosuroides); details: Alopecurus myosuroides, post-emergence, 336 h, Postemergence, scale 0 to 100, read-out: Plant response rating, Blackgrass
Procedure, shortened: as §1

## N#Cc1cccc(Oc2ncc(Cl)cn2)c1Oc1ncc(Br)cn1 [Compound 4, 2-[(5-bromo-2-pyrimidinyl)oxy]-3-[(5-chloro-2-pyrimidinyl)oxy]benzonitrile]
[1]; 31 g ai/ha
  plant injury at 31 g/ha: 70%
[1]; 62 g ai/ha
  plant injury at 62 g/ha: 70%
[1]; 125 g ai/ha
  plant injury at 125 g/ha: 70%
[2]; 16 g ai/ha
  Corn plant response rating (crop injury, 0 = no effect, 100 = complete kill) at 16 g/ha: 5%
[2]; 31 g ai/ha
  Corn plant response rating (crop injury, 0 = no effect, 100 = complete kill) at 31 g/ha: 5%
[2]; 62 g ai/ha
  Corn plant response rating (crop injury, 0 = no effect, 100 = complete kill) at 62 g/ha: 5%
[2]; 125 g ai/ha
  Corn plant response rating (crop injury, 0 = no effect, 100 = complete kill) at 125 g/ha: 10%
[3]; 16 g ai/ha
  pest or weed control at 16 g/ha: 5%
[3]; 31 g ai/ha
  pest or weed control at 31 g/ha: 5%
[3]; 62 g ai/ha
  pest or weed control at 62 g/ha: 5%
[3]; 125 g ai/ha
  pest or weed control at 125 g/ha: 5%
[4]; 31 g ai/ha
  pest or weed control at 31 g/ha: 0%
[4]; 62 g ai/ha
  pest or weed control at 62 g/ha: 0%
[4]; 125 g ai/ha
  pest or weed control at 125 g/ha: 5%
[5]; 31 g ai/ha
  pest or weed control at 31 g/ha: 50%
[5]; 62 g ai/ha
  pest or weed control at 62 g/ha: 75%
[5]; 125 g ai/ha
  pest or weed control at 125 g/ha: 85%
[6]; 16 g ai/ha
  pest or weed control at 16 g/ha: 30%
[6]; 31 g ai/ha
  pest or weed control at 31 g/ha: 70%
[6]; 62 g ai/ha
  pest or weed control at 62 g/ha: 80%
[6]; 125 g ai/ha
  pest or weed control at 125 g/ha: 90%
[7]; 16 g ai/ha
  pest or weed control at 16 g/ha: 40%
[7]; 31 g ai/ha
  pest or weed control at 31 g/ha: 40%
[7]; 62 g ai/ha
  pest or weed control at 62 g/ha: 45%
[7]; 125 g ai/ha
  pest or weed control at 125 g/ha: 35%
[8]; 16 g ai/ha
  pest or weed control at 16 g/ha: 20%
[8]; 31 g ai/ha
  pest or weed control at 31 g/ha: 40%
[8]; 62 g ai/ha
  pest or weed control at 62 g/ha: 50%
[8]; 125 g ai/ha
  pest or weed control at 125 g/ha: 80%
[9]; 31 g ai/ha
  pest or weed control at 31 g/ha: 55%
[9]; 62 g ai/ha
  pest or weed control at 62 g/ha: 75%
[9]; 125 g ai/ha
  pest or weed control at 125 g/ha: 70%
[10]; 31 g ai/ha
  plant injury at 31 g/ha: 10%
[10]; 62 g ai/ha
  plant injury at 62 g/ha: 45%
[10]; 125 g ai/ha
  plant injury at 125 g/ha: 60%
[11]; 31 g ai/ha
  pest or weed control at 31 g/ha: 65%
[11]; 62 g ai/ha
  pest or weed control at 62 g/ha: 80%
[11]; 125 g ai/ha
  pest or weed control at 125 g/ha: 95%
[12]; 31 g ai/ha
  pest or weed control at 31 g/ha: 5%
[12]; 62 g ai/ha
  pest or weed control at 62 g/ha: 10%
[12]; 125 g ai/ha
  pest or weed control at 125 g/ha: 10%
[13]; 31 g ai/ha
  pest or weed control at 31 g/ha: 0%
[13]; 62 g ai/ha
  pest or weed control at 62 g/ha: 10%
[13]; 125 g ai/ha
  pest or weed control at 125 g/ha: 10%
[14]; 16 g ai/ha
  pest or weed control at 16 g/ha: 5%
[14]; 31 g ai/ha
  pest or weed control at 31 g/ha: 5%
[14]; 62 g ai/ha
  pest or weed control at 62 g/ha: 5%
[14]; 125 g ai/ha
  pest or weed control at 125 g/ha: 5%
[15]; 16 g ai/ha
  pest or weed control at 16 g/ha: 0%
[15]; 31 g ai/ha
  pest or weed control at 31 g/ha: 0%
[15]; 62 g ai/ha
  pest or weed control at 62 g/ha: 0%
[15]; 125 g ai/ha
  pest or weed control at 125 g/ha: 10%
